Results as given in PMC8868586, “Comparison of Various Solvent Extracts and Major Bioactive Components from Unsalt-Fried and Salt-Fried Rhizomes of Anemarrhena asphodeloides for Antioxidant, Anti-α-Glucosidase, and Anti-Acetylcholinesterase Activities” (Antioxidants, 2022).
Like-named read-outs stand apart in the source and are kept apart here.

What was measured:
[1] = DPPH radical scavenging assay
Description: The DPPH radical scavenging assay was measured by the reference method.
(§1) ABTS and DPPH assays have been widely utilized to assess the antioxidant activities of natural components. Both assays are mostly connected with the proton radical scavenging or hydrogen donating capacities of the target compounds [29]. Superoxide radical scavenging activity is measured by the PMS/NADH–NBT system. Superoxide anion radicals generated from dissolved oxygen by PMS/NADH coupling reaction reduce NBT. The decrease in absorbance at 560 nm with antioxidants indicates a reduction in superoxide anion radicals in the reaction mixture. The ferric-reducing antioxidant power (FRAP) measures the antioxidant potential of each extract through the reduction of ferric iron (Fe^3+) complex to ferrous iron (Fe^2+) complex by antioxidants present in the samples [31].

[2] = ABTS radical scavenging assay
Description: ABTS radical scavenging activity of each extract was determined as previously described.
as §1

[3] = Superoxide radical scavenging assay (PMS/NADH-NBT system); conditions: isolated components
Description: Superoxide anion radical (O2^•–) scavenging activity was measured using the previously described method.
as §1

[4] = Ferric-reducing antioxidant power (FRAP) assay
Description: The FRAP assay was determined by the reference method with a slight modification. The working solution was mixed with acetate buffer (pH 3.6), ferric chloride solution (20 mM), and TPTZ solution (10 mM TPTZ in 40 mM HCl) in a proportion of 10:1:1, respectively, and freshly prepared before being used. A total of 900 μL of the working solution was warmed to 37 °C and then mixed with 100 μL of the diluted sample, blank or standard, in a microcentrifuge tube. The tubes were vortexed in a dry bath at 37 °C for 40 min. The absorbance was measured at 593 nm. The standard curve was linear between 0 and 100 mM Trolox. Results are expressed in mM TE/g dry weight. Additional dilution was needed if the FRAP value measured was over the linear range of the standard curve.
as §1

[5] = target: T1, α-glucosidase (Saccharomyces cerevisiae, UniProt P53341); experiment: α-Glucosidase inhibitory activity assay; type: biochemical
T1 construct: purchased Sigma-Aldrich
T1 sequence (P53341 whole entry): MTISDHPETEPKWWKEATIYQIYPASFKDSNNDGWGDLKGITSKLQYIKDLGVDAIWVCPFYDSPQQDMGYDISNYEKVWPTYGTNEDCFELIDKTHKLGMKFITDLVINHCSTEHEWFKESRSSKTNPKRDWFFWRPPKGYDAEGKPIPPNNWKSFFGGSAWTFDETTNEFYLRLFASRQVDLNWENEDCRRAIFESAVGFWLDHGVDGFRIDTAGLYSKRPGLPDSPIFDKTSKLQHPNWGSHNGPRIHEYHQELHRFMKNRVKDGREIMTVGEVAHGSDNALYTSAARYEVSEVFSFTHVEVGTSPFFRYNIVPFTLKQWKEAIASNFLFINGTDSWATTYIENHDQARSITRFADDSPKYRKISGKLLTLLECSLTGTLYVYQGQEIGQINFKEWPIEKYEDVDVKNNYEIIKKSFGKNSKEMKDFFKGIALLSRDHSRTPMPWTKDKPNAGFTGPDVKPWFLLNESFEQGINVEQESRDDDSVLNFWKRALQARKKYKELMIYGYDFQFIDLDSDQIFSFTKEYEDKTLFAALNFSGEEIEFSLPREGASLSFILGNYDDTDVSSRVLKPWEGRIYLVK
Description: The inhibition assay of α-glucosidase was conducted using the procedure previously reported.

[6] = target: T2, acetylcholinesterase (AChE) (Homo sapiens, UniProt P22303); experiment: biochemical; conditions: pure compounds; read-out: AchE Inhibitory Assay IC50 (converted)
T2 construct: purchased Sigma-Aldrich
T2 sequence (P22303 32-614): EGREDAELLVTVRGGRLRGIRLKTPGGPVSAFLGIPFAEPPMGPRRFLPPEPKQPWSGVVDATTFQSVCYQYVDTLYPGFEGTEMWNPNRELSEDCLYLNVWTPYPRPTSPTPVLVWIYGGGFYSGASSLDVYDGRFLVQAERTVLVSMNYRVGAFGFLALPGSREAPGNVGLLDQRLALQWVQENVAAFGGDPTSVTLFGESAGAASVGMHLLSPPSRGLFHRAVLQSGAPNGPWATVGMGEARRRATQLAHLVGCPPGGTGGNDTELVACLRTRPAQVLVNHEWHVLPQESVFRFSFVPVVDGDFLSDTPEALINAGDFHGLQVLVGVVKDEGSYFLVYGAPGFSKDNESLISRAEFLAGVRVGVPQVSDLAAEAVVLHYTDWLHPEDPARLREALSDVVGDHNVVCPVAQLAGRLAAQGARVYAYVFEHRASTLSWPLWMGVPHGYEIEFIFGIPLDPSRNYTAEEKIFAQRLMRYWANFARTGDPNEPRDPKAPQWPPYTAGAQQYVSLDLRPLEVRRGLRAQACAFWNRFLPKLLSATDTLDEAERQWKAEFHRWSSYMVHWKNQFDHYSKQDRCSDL
Description: The inhibition assay of acetylcholinesterase was conducted using the conditions previously reported with slight modifications. Briefly, 0.1 M sodium phosphate buffer (pH 8.0, 140 μL), test compound solution (20 μL), enzyme solution (15 μL of AChE 0.2 units/mL solution), and DTNB (15 mM, 10 μL) were mixed and incubated for 10 min at room temperature. Substrate (10 μL of AchI 15 mM solution) was then added and the reaction was initiated.

[7] = Trolox equivalents per gram, isolated components
[8] = solvent extracts of AA (non-salt-fried) series
[9] = solvent extracts of salt-fried AA series
[10] = pure compounds, read-out: α-Glucosidase IC50 (converted)

| Compound | DPPH IC50 ([1]; isolated components) [mg/L] | ABTS IC50 ([2]; isolated components) [mg/L] | Superoxide IC50 [3] [mg/L] | FRAP (TE) [4, 7] [mM/g] | IC50 [5] [µM] | IC50 [6] [µM] | DPPH IC50 [1, 8] [mg/L] | DPPH IC50 [1, 9] [mg/L] | ABTS IC50 [2, 8] [mg/L] | ABTS IC50 [2, 9] [mg/L] | FRAP (TE) ([4]; Trolox equivalents per gram of extract, AA (non-salt-fried) series) [mM/g] | FRAP (TE) ([4]; Trolox equivalents per gram of extract, salt-fried AA series) [mM/g] | IC50 [5, 10] [µM] | potency against α-glucosidase relative to acarbose ([5]; fold stronger than acarbose) |
| --- | --- | --- | --- | --- | --- | --- | --- | --- | --- | --- | --- | --- | --- | --- |
| O=c1c2cc(O)c(O)cc2oc2c([C@@H]3O[C@H](CO)[C@@H](O)[C@H](O)[C@H]3O)c(O)cc(O)c12 [Isomangiferin, isomangiferin] | 16.7 ± 1.1 | 5.6 ± 0.4 | 155.3 ± 13.8 | 6359.9 ± 176.8 | 434 | 227 |  |  |  |  |  |  |  |  |
| Cc1cc(C(C)(C)C)c(O)c(C(C)(C)C)c1 [BHT, Butylated hydroxytoluene, reference compound] | 27.2 ± 1.9 | 15.4 ± 0.9 |  | 3963.9 ± 104.0 |  |  | 35.5 ± 0.6 | 39.7 ± 1.4 | 20.6 ± 0.2 | 19.6 ± 0.4 | 4297.0 ± 48.4 | 4216.1 ± 66.5 |  |  |
| C[C@H]1CC[C@@]2(OC1)O[C@H]1C[C@H]3[C@@H]4CC[C@@H]5C[C@@H](O[C@@H]6O[C@H](CO)[C@H](O)[C@H](O)[C@H]6O[C@@H]6O[C@H](CO)[C@@H](O)[C@H](O)[C@H]6O)CC[C@]5(C)[C@H]4CC[C@]3(C)[C@H]1[C@@H]2C [Timosaponin A-III, timosaponin A-III] | >200 | >200 | >200 | 19.5 ± 3.9 |  | 179 |  |  |  |  |  |  | 97.9 |  |
| O=c1c2cc(O[C@@H]3O[C@H](CO)[C@@H](O)[C@H](O)[C@H]3O)c(O)cc2oc2cc(O)c([C@@H]3O[C@H](CO)[C@@H](O)[C@H](O)[C@H]3O)c(O)c12 [Neomangiferin, neomangiferin] | >200 | 81.9 ± 4.6 | >200 | 83.1 ± 5.3 | > 684 | 121 |  |  |  |  |  |  |  |  |
| O=c1c2cc(O)c(O)cc2oc2cc(O)c([C@@H]3O[C@H](CO)[C@@H](O)[C@H](O)[C@H]3O)c(O)c12 [Mangiferin, mangiferin] | 5.4 ± 0.3 | 3.7 ± 0.2 | 53.8 ± 2.4 | 9371.4 ± 183.9 |  | 161 |  |  |  |  |  |  | 146 | about five-fold |
